Reference: ChEMBL document CHEMBL1201862, “PubChem BioAssay data set” (2004)
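Method: 48-hour compound exposure of cells in 96-well plates, five concentrations, linear interpolation of endpoints. GI50 is the concentration that inhibits growth by half.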 Activity calls are given as the source filed them. No stated cut-off is given here; in the data, active = GI50 up to about 1.1 µM and inactive = higher.

Assays:
Test in all cases: NCI tumour cell line growth inhibition, 48 h
A549 = system: A549
EKVX = system: EKVX
SF-268 = system: SF-268
NCI-H23 = system: NCI-H23
SK-MEL-5 = system: SK-MEL-5
NCI-H226 = system: NCI-H226
CCRF-CEM = system: CCRF-CEM
COLO 205 = system: COLO 205
UO-31 = system: UO-31
SK-MEL-2 = system: SK-MEL-2
MOLT-4 = system: MOLT-4
UACC-62 = system: UACC-62
A498 = system: A498
SF-295 = system: SF-295
OVCAR-4 = system: OVCAR-4
HL-60 = system: HL-60
786-0 = system: 786-0

| SMILES | GI50 (A549) | GI50 (EKVX) | GI50 (SF-268) | GI50 (NCI-H23) | GI50 (SK-MEL-5) | GI50 (NCI-H226) | GI50 (CCRF-CEM) | GI50 (COLO 205) | GI50 (UO-31) | GI50 (SK-MEL-2) | GI50 (MOLT-4) | GI50 (UACC-62) | GI50 (A498) | GI50 (SF-295) | GI50 (OVCAR-4) | GI50 (HL-60) | GI50 (786-0) |
| --- | --- | --- | --- | --- | --- | --- | --- | --- | --- | --- | --- | --- | --- | --- | --- | --- | --- |
| N#CC(Nc1cccc(C(F)(F)F)c1)c1ccccc1C(F)(F)F (stereo not drawn) | 15.3 µM (inactive) | 15.4 µM (inactive) | 17.2 µM (inactive) | 13.9 µM (inactive) | 18 µM (inactive) | 15.9 µM (inactive) | 18.4 µM (inactive) | 3.26 µM (inactive) | 17.9 µM (inactive) | 7.21 µM (inactive) | 14.6 µM (inactive) | 16.2 µM (inactive) | 19.1 µM (inactive) | 10.5 µM (inactive) | 5.58 µM (inactive) | 4.9 µM (inactive) |  |
| O=C(/C=C/c1c(O)ccc2ccccc12)c1cccc2ccccc12 | > 100 µM (inactive) | > 100 µM (inactive) | > 100 µM (inactive) | > 100 µM (inactive) | > 100 µM (inactive) | > 57.9 µM (inactive) | 23.7 µM (inactive) | > 100 µM (inactive) | 34 µM (inactive) | > 95.1 µM (inactive) | 51.5 µM (inactive) | > 100 µM (inactive) | > 100 µM (inactive) | > 100 µM (inactive) |  | > 43.8 µM (inactive) | > 69.7 µM (inactive) |
| NCCSc1nc(N)c2ncn(C3OC(CO)C(O)C3O)c2n1 (stereo not drawn) | > 100 µM (inactive) |  | > 100 µM (inactive) | > 100 µM (inactive) | > 100 µM (inactive) | > 100 µM (inactive) | > 100 µM (inactive) | > 100 µM (inactive) | > 100 µM (inactive) | > 100 µM (inactive) | > 100 µM (inactive) | > 100 µM (inactive) | > 100 µM (inactive) | > 100 µM (inactive) | > 100 µM (inactive) | > 100 µM (inactive) | > 100 µM (inactive) |
| CCCCCCCCCCCCCCCCCCC1=C(O)C(=O)C=C(OC)C1=O | 46.8 µM (inactive) | 41.7 µM (inactive) | 38.5 µM (inactive) | 26 µM (inactive) | 40 µM (inactive) | 62.5 µM (inactive) |  | 48.5 µM (inactive) | 85.5 µM (inactive) | 26.5 µM (inactive) | 21.1 µM (inactive) | 27.8 µM (inactive) | > 100 µM (inactive) | 36.5 µM (inactive) | 46.7 µM (inactive) | 22.5 µM (inactive) | 34.3 µM (inactive) |
| CCCCCCCC/C=C/CCCCCCCC(=O)N(O)C1CC(n2cc(C)c(=O)[nH]c2=O)OC1CO (stereo not drawn) | 19 µM (inactive) |  | 11 µM (inactive) | 10.6 µM (inactive) | 7.18 µM (inactive) |  | 4.22 µM (inactive) | 4.8 µM (inactive) | 3.96 µM (inactive) | 13.7 µM (inactive) | 4.41 µM (inactive) | 2.64 µM (inactive) | 18.3 µM (inactive) | 8.28 µM (inactive) | 11.2 µM (inactive) |  | 4.46 µM (inactive) |
| CCC1CN2CCC3(c4ccccc4)CC(C(=O)OC)=CC1C23 (stereo not drawn) | 17.3 µM (inactive) | 13.5 µM (inactive) | 14.3 µM (inactive) | 15.4 µM (inactive) | 16.4 µM (inactive) | 17 µM (inactive) | > 100 µM (inactive) | 16.9 µM (inactive) | 14.1 µM (inactive) |  | 49.2 µM (inactive) | 15.9 µM (inactive) | 18.6 µM (inactive) | 18.2 µM (inactive) | 14.5 µM (inactive) |  | 17.2 µM (inactive) |
| CN(C)c1ccc(/C=C/C(=O)C(C)(C)C)cc1Br | 39.9 µM (inactive) | 44.4 µM (inactive) | 20.3 µM (inactive) | 26.1 µM (inactive) | 18.7 µM (inactive) |  | 24.6 µM (inactive) | 25.7 µM (inactive) | 32.1 µM (inactive) | 18.9 µM (inactive) | 21.2 µM (inactive) | 16.7 µM (inactive) | 41.1 µM (inactive) | 40.3 µM (inactive) | 19.9 µM (inactive) |  | 24 µM (inactive) |
| Cc1ccc(SC(CCC(Sc2ccc(C)cc2)Sc2ccc(C)cc2)Sc2ccc(C)cc2)cc1 | > 100 µM (inactive) | > 100 µM (inactive) | > 100 µM (inactive) | > 100 µM (inactive) | > 100 µM (inactive) |  | > 100 µM (inactive) | > 100 µM (inactive) | > 100 µM (inactive) | > 100 µM (inactive) | > 100 µM (inactive) | > 100 µM (inactive) | > 100 µM (inactive) | > 100 µM (inactive) | > 100 µM (inactive) | > 100 µM (inactive) | > 100 µM (inactive) |
| O=C(O)CSc1ccc2nc3ccccc3c(O)c2c1 | > 100 µM (inactive) |  | > 100 µM (inactive) | > 100 µM (inactive) | > 100 µM (inactive) | > 100 µM (inactive) | > 100 µM (inactive) | > 100 µM (inactive) | > 100 µM (inactive) |  | > 100 µM (inactive) | > 100 µM (inactive) | > 100 µM (inactive) | > 100 µM (inactive) | > 100 µM (inactive) | > 100 µM (inactive) | > 100 µM (inactive) |
| COc1ccccc1/N=N/c1c(-c2ccccc2)nn(C(=O)CC(=O)Nc2ccccc2Cl)c1-c1ccccc1 | > 100 µM (inactive) | > 100 µM (inactive) | > 100 µM (inactive) | > 100 µM (inactive) | > 100 µM (inactive) | > 100 µM (inactive) | 77.8 µM (inactive) | > 100 µM (inactive) | > 100 µM (inactive) |  | 81.8 µM (inactive) | > 100 µM (inactive) | > 100 µM (inactive) | > 100 µM (inactive) | > 100 µM (inactive) | > 100 µM (inactive) | > 100 µM (inactive) |
| COc1cc2c(cc1OC)C(=O)Cc1ccc3c(c1CNCC2)OCO3 | > 100 µM (inactive) | > 100 µM (inactive) | > 100 µM (inactive) | > 100 µM (inactive) | > 100 µM (inactive) |  | > 100 µM (inactive) | > 100 µM (inactive) | > 100 µM (inactive) | > 100 µM (inactive) | > 100 µM (inactive) | > 100 µM (inactive) | > 100 µM (inactive) | > 100 µM (inactive) | > 100 µM (inactive) |  | > 100 µM (inactive) |
| OCC12C=CC(C1)c1ccccc12 (stereo not drawn) | > 100 µM (inactive) |  | > 100 µM (inactive) | > 100 µM (inactive) | > 100 µM (inactive) | > 100 µM (inactive) | > 100 µM (inactive) | > 100 µM (inactive) | > 100 µM (inactive) |  | > 100 µM (inactive) | > 100 µM (inactive) | > 100 µM (inactive) | > 100 µM (inactive) | > 100 µM (inactive) | > 100 µM (inactive) | > 100 µM (inactive) |
| COc1ccc(C(=O)OCC2OC(n3cnc4c(=S)nc[nH]c43)C(OC(=O)c3ccc(OC)cc3)C2OC(=O)c2ccc(OC)cc2)cc1 (stereo not drawn) | > 100 µM (inactive) |  | 30.1 µM (inactive) | 39.7 µM (inactive) | 69.2 µM (inactive) | 30.1 µM (inactive) | 8.47 µM (inactive) | > 100 µM (inactive) | 55.1 µM (inactive) | 12.8 µM (inactive) | 22.5 µM (inactive) | 13.3 µM (inactive) |  | 33.1 µM (inactive) | 7.82 µM (inactive) | 26.2 µM (inactive) | 15.3 µM (inactive) |
| CCC1(O)C[C@H]2CN(CCCc3c([nH]c4ccccc34)[C@@](C(=O)OC)(c3cc4c(cc3OC)N(C)C3[C@](O)(C(=O)OC)[C@H](OC(C)=O)[C@]5(CC)C=CCN6CC[C@]43[C@H]65)C2)C1 (stereo partly drawn) | 1.46 µM (inactive) | 1.63 µM (inactive) | 1.01 µM (active) | 0.743 µM (active) | 0.333 µM (active) |  | 0.453 µM (active) | 0.593 µM (active) | 4.38 µM (inactive) | 0.63 µM (active) | 0.586 µM (active) | 0.525 µM (active) | 1.21 µM (inactive) | 0.275 µM (active) | 0.353 µM (active) | 0.621 µM (active) | 0.589 µM (active) |
| CCCCCCCC(=O)OC[C@@H](C[As](=O)(O)O)OC(=O)CCCCCCC | 3.73 µM (inactive) | 26.5 µM (inactive) | 5.85 µM (inactive) | 12.9 µM (inactive) | 13.9 µM (inactive) | 6.58 µM (inactive) | 1.88 µM (inactive) | 17.8 µM (inactive) | 2.59 µM (inactive) |  | 2.58 µM (inactive) | 11.3 µM (inactive) | 11.2 µM (inactive) | 15.1 µM (inactive) | 11.9 µM (inactive) | 2.98 µM (inactive) | 12.1 µM (inactive) |
| N#CC1=C(N)n2c(s/c(=C\c3ccc(Cl)cc3)c2=O)=C(c2nc3ccccc3[nH]2)C1c1ccc(Cl)cc1 (stereo not drawn) | 3.32 µM (inactive) | 1.88 µM (inactive) | 2.64 µM (inactive) | 0.426 µM (active) | 3.02 µM (inactive) | 1.91 µM (inactive) | 1.71 µM (inactive) | 2.51 µM (inactive) | 4.45 µM (inactive) | 2.14 µM (inactive) | 1.47 µM (inactive) | 1.23 µM (inactive) | 1.38 µM (inactive) |  | 2.01 µM (inactive) | 2.04 µM (inactive) | 2.23 µM (inactive) |
| Cc1cc(C)nc(NS(=O)(=O)c2ccc(Nc3c4ccccc4nc4c(C(=O)Nc5ccc(S(=O)(=O)Nc6cc(C)on6)cc5)cccc34)cc2)n1 | 34.7 µM (inactive) | 26.2 µM (inactive) | 24.2 µM (inactive) | 22.1 µM (inactive) | 18.7 µM (inactive) | 21 µM (inactive) |  | 17.7 µM (inactive) | 26.4 µM (inactive) |  | 24.8 µM (inactive) | 17.8 µM (inactive) | 19.2 µM (inactive) | 22.8 µM (inactive) | 22.6 µM (inactive) | 22.8 µM (inactive) | 18.5 µM (inactive) |
